# Assay results as given in ChEMBL document CHEMBL1201862, “PubChem BioAssay data set” (2004).
#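 How tested: cells in 96-well plates exposed to compound for 48 hours at five concentrations. The concentration for 50% growth inhibition is given as GI50.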 Activity calls are given as the source filed them. Rule as the data show it: active = GI50 up to about 1.1 µM and inactive = higher.
# How the values were obtained:
# Assay in all cases: NCI tumour cell line growth inhibition, 48 h
# NCI-H460 = tested on: NCI-H460
# NCI-H226 = tested on: NCI-H226
# RXF 393 = tested on: RXF 393
# SK-OV-3 = tested on: SK-OV-3
# T47D = tested on: T47D
# HOP-62 = tested on: HOP-62
# CCRF-CEM = tested on: CCRF-CEM
# HOP-92 = tested on: HOP-92
# SK-MEL-2 = tested on: SK-MEL-2
# MCF7 = tested on: MCF7
# OVCAR-5 = tested on: OVCAR-5
# ACHN = tested on: ACHN
# 786-0 = tested on: 786-0
# MDA-N = tested on: MDA-N
# KM12 = tested on: KM12
# OVCAR-8 = tested on: OVCAR-8
# BT-549 = tested on: BT-549
# TK-10 = tested on: TK-10
Structure (SMILES),GI50 (NCI-H460),GI50 (NCI-H226),GI50 (RXF 393),GI50 (SK-OV-3),GI50 (T47D),GI50 (HOP-62),GI50 (CCRF-CEM),GI50 (HOP-92),GI50 (SK-MEL-2),GI50 (MCF7),GI50 (OVCAR-5),GI50 (ACHN),GI50 (786-0),GI50 (MDA-N),GI50 (KM12),GI50 (OVCAR-8),GI50 (BT-549),GI50 (TK-10)
C/C(=C\C(=O)O)C(=O)N(C)c1ccccc1I,> 100 µM (inactive),> 100 µM (inactive),> 100 µM (inactive),> 100 µM (inactive),> 100 µM (inactive),> 100 µM (inactive),> 100 µM (inactive),> 100 µM (inactive),> 100 µM (inactive),> 100 µM (inactive),> 100 µM (inactive),> 100 µM (inactive),> 100 µM (inactive),> 100 µM (inactive),> 100 µM (inactive),> 100 µM (inactive),,
CC(=O)Nc1ccc(-c2nc3ccccc3s2)cc1C,78.2 µM (inactive),26.9 µM (inactive),44.7 µM (inactive),32.6 µM (inactive),12.2 µM (inactive),40.6 µM (inactive),> 100 µM (inactive),> 100 µM (inactive),37.1 µM (inactive),33.5 µM (inactive),,44.4 µM (inactive),52.6 µM (inactive),,51.2 µM (inactive),53.1 µM (inactive),27.5 µM (inactive),72.9 µM (inactive)
CC1=NN(c2nc(N)nc(COc3ccc(N)cc3)n2)C(C)(C)C1,> 100 µM (inactive),> 100 µM (inactive),> 100 µM (inactive),> 100 µM (inactive),> 100 µM (inactive),> 100 µM (inactive),> 100 µM (inactive),> 100 µM (inactive),> 100 µM (inactive),> 100 µM (inactive),,> 100 µM (inactive),> 100 µM (inactive),,> 100 µM (inactive),> 100 µM (inactive),> 100 µM (inactive),> 100 µM (inactive)
CCOC(=O)Cc1nnc2c(-c3ccccc3)nc3ccccc3n12,> 100 µM (inactive),> 100 µM (inactive),20.6 µM (inactive),23.8 µM (inactive),,14.4 µM (inactive),> 100 µM (inactive),41.6 µM (inactive),28.1 µM (inactive),85.3 µM (inactive),63.5 µM (inactive),19.8 µM (inactive),> 100 µM (inactive),> 100 µM (inactive),> 100 µM (inactive),,> 100 µM (inactive),31.2 µM (inactive)
O=S(=O)(N/C(=N\O)Nc1ccc(Cl)cc1)c1ccc(S(=O)(=O)c2ccccc2)s1,14.4 µM (inactive),14.6 µM (inactive),24 µM (inactive),,15.8 µM (inactive),26.5 µM (inactive),19.1 µM (inactive),6.92 µM (inactive),17.9 µM (inactive),27 µM (inactive),24.3 µM (inactive),20 µM (inactive),29.7 µM (inactive),,20.6 µM (inactive),24.3 µM (inactive),15.4 µM (inactive),23.8 µM (inactive)
CCCCCCCCCCN(CCCCCCCCCC)C(=O)COc1c2cc(C(C)(C)C)cc1Cc1cc(C(C)(C)C)cc(c1OCC(=O)N(CCCCCCCCCC)CCCCCCCCCC)Cc1cc(C(C)(C)C)cc(c1OCC(=O)N(CCCCCCCCCC)CCCCCCCCCC)Cc1cc(C(C)(C)C)cc(c1OCC(=O)N(CCCCCCCCCC)CCCCCCCCCC)C2,12.6 µM (inactive),19.3 µM (inactive),9.68 µM (inactive),14.4 µM (inactive),16.1 µM (inactive),16.1 µM (inactive),4.66 µM (inactive),< 0.01 µM (active),7.93 µM (inactive),3.59 µM (inactive),13.3 µM (inactive),14.9 µM (inactive),11.2 µM (inactive),12.2 µM (inactive),11.5 µM (inactive),4.16 µM (inactive),,18.8 µM (inactive)
O=c1[nH]ncc2[nH]c3c(c12)CCc1ccccc1-3,28.2 µM (inactive),13.5 µM (inactive),16.6 µM (inactive),24.6 µM (inactive),25.2 µM (inactive),45.9 µM (inactive),31.5 µM (inactive),30.9 µM (inactive),23 µM (inactive),,44.3 µM (inactive),32.1 µM (inactive),36.1 µM (inactive),,28.2 µM (inactive),33.6 µM (inactive),35.5 µM (inactive),27.6 µM (inactive)
CC(=O)OCC1OC(OCC2OC(N3C(=S)N[C@H]([C@@H](O)[C@H](O)[C@H](O)CO)[C@H]3O)C(OC(C)=O)C(OC(C)=O)C2OC(C)=O)C(OC(C)=O)C(OC(C)=O)C1OC(C)=O (stereo partly drawn),> 100 µM (inactive),,> 100 µM (inactive),> 100 µM (inactive),61.8 µM (inactive),> 100 µM (inactive),,33.5 µM (inactive),> 100 µM (inactive),> 100 µM (inactive),> 100 µM (inactive),> 100 µM (inactive),> 100 µM (inactive),> 100 µM (inactive),> 100 µM (inactive),43.9 µM (inactive),,> 100 µM (inactive)
